Assay results as given in patent US20100093643A1 (priority 2006, published 2010).
Where “and” joins values, the source holds several entries; their conditions need not be identical. Equal entries are not always repeated. Where two headings read alike, the source gives them in different places.

How the values were obtained:
[1] = system: CD-1 male mice; assay: Analgesic activity in vivo, hot plate method; parameters: species or system mouse
Description: Male Swiss albino mice (CD1), weighing 20-22 g were used throughout the study. The animals were housed in solid bottom polycarbonate cages with access to standard laboratory diet (Laboratory Rodent Diet PK-120) and tap water ad libitum, under controlled environmental conditions (temperature:18-26° C., 8 a.m. to 8 p.m. light-dark cycle). Mice were tested only once.
The Hot-plate-meter represents the thermostatic controllable, electro-heated up surface limited by transparent walls (L: 25 cm, W: 25 cm, H: 35 cm). The forward panel of the device is equipped by buttons for the control of time and a temperature mode (Columbus Instruments).
The i.v. administration was performed via tail vein as a bolus injection. The doses for all animals were calculated on the basis of the last value of the individual body weight.
The animals accurately were placed on the preheated hot plate (55±0.5° C.) after i.v. injection of saline or peptides and the latencies to first paw licking and first jumping were measured. The other behavioral reactions were ignored. The animals were removed from a hot surface after the first jumping. A cut-off time of 180 s was used to avoid tissue damage.
To evaluate the hot-plate test responses, the control latencies (t0) and test latencies (t1) were determined after injection of saline or peptides, respectively. The percentage of the maximal possible effect (% MPE) was calculated as % MPE=(t1−t0)/(t2−t0)×100, where the cut-off time (t2) was 180 s.
The latency for the first jumping is considered as the most indicative in the hot-plate test. The area under the time-response curve was calculated by methods described elsewhere (Cicero and Meyer, 1973), to assess the magnitude of antinociception (FIG. 5, see appendix).
The median analgesic dose (ED50) also has been calculated for this parameter.

[2] = system: BALB mice under normobaric hypoxic hypoxia; assay: Antihypoxic action, lifetime of mice under normobaric hypoxic hypoxia; format: in vivo, mouse
Description: Antihypoxic action of the new enkephalin analogue (1) was determined by the measurement of lifetime duration in mice under the normobaric hypoxic hypoxia conditions.
The experiments were conducted on BALB-bread mice weighing 20 to 22 g. The normobaric hypoxic hypoxia conditions were modelled by placing the animals in hermetic camera, containing Ca(OH)2 to absorb the excess of carbon dioxide. The substances studied were injected intraperitoneally 1 min. before the placing of animals in the hermetic camera. The peptides were used at doses 1.0 mg/kg. […] Sodium oxybutyrate at highest therapeutic dose was used as comparative compound. The lifetime was estimated as the time when the animals stopped making breathing movements.

[3] = target: T1, peripheral opiate receptors, guinea pig ileum (GPI, predominantly μ-type of opioid receptor) (Cavia porcellus, UniProt A0ACM8Q262); conditions: GPI assay
T1 construct: other: guinea pig ileum longitudinal muscle, electrical stimulation; GPI Relative potency, %; other: GPI assay
T1 sequence (A0ACM8Q262 1-400): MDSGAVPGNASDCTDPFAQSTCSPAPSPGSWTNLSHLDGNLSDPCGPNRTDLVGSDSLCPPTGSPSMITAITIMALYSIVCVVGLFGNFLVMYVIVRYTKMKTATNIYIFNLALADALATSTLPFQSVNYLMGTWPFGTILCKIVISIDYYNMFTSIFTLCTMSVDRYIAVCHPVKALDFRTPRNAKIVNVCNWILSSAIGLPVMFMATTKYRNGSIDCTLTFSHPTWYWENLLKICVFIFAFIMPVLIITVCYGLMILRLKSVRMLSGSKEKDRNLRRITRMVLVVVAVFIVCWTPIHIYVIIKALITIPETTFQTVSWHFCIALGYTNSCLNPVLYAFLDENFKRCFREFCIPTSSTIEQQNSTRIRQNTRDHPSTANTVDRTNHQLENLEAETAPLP

[4] = system: peripheral opiate receptors, guinea pig ileum (GPI, predominantly μ-type of opioid receptor); conditions: ratio of relative potencies GPI to MVD
[5] = system: rats with ligature of coronary arteries; format: in vivo, rat; parameters: myocardial necrosis size: unit not given here; conditions: for CPK / HF-CPK / Lactate: blood; for Lethality %: rats with sharp myocardial ischemia
[6] = system: peripheral opiate receptors, mouse vas deferens (MVD); assay: MVD bioassay, suppression of electrically induced contraction
Description: Brit. J. Pharmacol., 35, 10-28]. The longitudinal muscle of ileum from guinea pig of any sex (weight 350-500 g) was carefully separated from underlying circular muscle and placed into a small bath with Krebs solution at 36° C.
The solution was constantly aerated. A constant load of 0.2 g was applied to the tissue. The tissue was stimulated by means of the ring platinum electrodes by single impulses of […] duration with 0.1 Hz frequency. […] Vas deferens of mice (weight 27 to 30 g) were placed into a bath with modified Krebs solution (not containing magnesium sulphate) at 31° C. The substances under study were dissolved in distilled water. The inhibiting activity of the compounds was determined by accumulating doses, adding increasing concentrations of the compounds without washing. The activity of the preparations was expressed as IC50 in nmol/l. The results obtained in 8-10 tests were statistically processed using Student's criterion.

[7] = system: outbreed male mice; assay: Analgesic activity in vivo, tail pinch method; parameters: species or system mouse
Description: Analgesic activity of enkephalin analogues was determined by a “tail pinch” method [Ueda H.; Amano H.; Shiomi H.; Takagi H. (1979). Eur. J. Pharmacol., 56, 265-268]. […] Ten mice were used in each experiment.
The studied substances were dissolved in sterile physiological solution and injected in J-shaped needles into the brain of conscious mice at a dose of 10 μl. Control animals received 10 μl of sterile physiological solution. Intravenous administration was into the tail vein. Analgesic activity was tested by pinching the mouse tail with an artery clip with 200 g pressure. The mice who bit the clip within one second after application of pinching were selected for assays. Analgesic activity was defined as latency on the biting response greater than 6 sec. The analgesic tests were performed 5, 15, 30, 60 and 90 min after administration and then every 30 min until the analgesic reaction was stopped. The analgesic activity of the peptides was expressed as a percentage of mice not showing the biting response.

[8] = 6 hours after ligature, compound (1) 0.05 mg/kg
[9] = 24 hours after ligature, compound (1) 0.05 mg/kg, nitroglycerine highest therapeutic dose

CC(=O)NCCCC(NC(=O)C(N)Cc1ccc(O)cc1)C(=O)NCC(=O)NC(Cc1ccc([N+](=O)[O-])cc1)C(N)=O [Peptide 1, Tyr-(N^δ—Ac)-D-Orn-Gly-Phe(p-NO2)—NH2]
ED50 (jump latency) ([1]; intravenous administration, time point of 15 min): 1.27 mg/kg | analgesic activity exceeding that of morphine ([1]; intravenous, from ED50 at 15 min): 2 times | lifetime longer than in the control experiments ([2]; 1.0 mg/kg i.p.): 57% | Duration of life ([2]; 1.0 mg/kg i.p. 1 min before hermetic chamber): 16.9 ± 1.1 min | activity compared with morphine [3]: more active than morphine by one order | GPIrel/MVDrel [4]: 46 | myocardial necrosis size ([5]; 0.05 mg/kg i.p. 30 min after coronary occlusion, observation time 6 hours): 40.70 ± 1.52 | myocardial necrosis size ([5]; 0.05 mg/kg i.p. 30 min after coronary occlusion, observation time 12 hours): 47.51 ± 1.63 | myocardial necrosis size ([5]; 0.5 mg/kg i.p. 30 min after coronary occlusion, observation time 6 hours): 40.05 ± 1.93 | myocardial necrosis size ([5]; 0.5 mg/kg i.p. 30 min after coronary occlusion, observation time 12 hours): 46.64 ± 2.20 | Glycogen of heart [5, 8]: 1.00 ± 0.12 g/kg | Glycogen of liver [5, 8]: 6.98 ± 1.02 g/kg | Glycogen of heart ([5]; 24 hours after ligature, compound (1) 0.05 mg/kg): 1.11 ± 0.17 g/kg | CPK [5, 8]: 93.5 ± 5.3 units/l | HF-CPK [5, 8]: 15.3 ± 0.7 units/l | Lactate [5, 8]: 1.61 ± 0.45 mmol/L | CPK [5, 9]: 86.6 ± 4.9 units/l | HF-CPK [5, 9]: 12.3 ± 0.7 units/l | Lactate [5, 9]: 1.70 ± 0.09 mmol/L | Lethality % ([5]; 0.05 mg/kg): 33% | Lethality % ([5]; 0.5 mg/kg): 27% | MVD Relative potency, % ([6]; [Leu^5]-enkephalin = 100): 52% | IC50 ([6]; mouse vas deferens, electrical stimulation): 38.5 ± 20.1 nM | Duration of analgesic effect at ED60-80 ([7]; intracisternal administration): 120 min | ED50 nmol/animal (dose interval) ([7]; intracisternal administration): 0.02 (0.01-0.04) nmol/animal | Relative analgesic activity morphine = 1 ([7]; intracisternal administration): 60 | Duration of analgesic effect at ED60-80 ([7]; intravenous administration): 60 min | ED50 μmol/kg (dose interval) ([7]; intravenous administration): 8.0 (0-25) μmol/kg | Relative analgesic activity morphine = 1 ([7]; intravenous administration): 2 and 2.2
